These results are taken from the supplement of paper PMC12463676, “Small-molecule dissolution of stress granules by redox modulation benefits ALS models” (Nature Chemical Biology, 2025).

Compound in assay [1]: NC(=O)CCCCC1CCSS1 [lipoamide]
As to the kind of experiment: thermal stability z-score vs DMSO; higher = more thermally stabilized by treatment. Conditions: HeLa, lipoamide concentration 100 µM. Here is the method: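 Cellular thermal proteome profiling in HeLa cells. Cells were treated with 100 µM lipoamide for 1 h, with or without 1 mM arsenate for a further 1 h, then heated to ten temperatures (37-66.3 °C), and soluble protein was quantified by TMT mass spectrometry relative to 0.1% DMSO controls. The thermal stability score (sum of log2 fold changes minus the abundance score) was transformed to a z-score; mean of n = 3 experiments.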

Compound in assay [2]: O=[As]([O-])(O)O.[K+] [potassium arsenate]
The assay is described as above. Conditions: HeLa; arsenate concentration 1 mM. Here is the method:
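Cellular thermal proteome profiling in HeLa cells treated with 1 mM arsenate for 1 h (DMSO pretreatment), heated to ten temperatures (37-66.3 °C). Soluble protein was quantified by TMT mass spectrometry relative to DMSO controls; the thermal stability score was transformed to a z-score; mean of n = 3 experiments.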

Setting [3] is: arsenate co-treatment: 1 mM arsenate 1 h.
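Further: each temperature applied for 3 min, abundance score taken as mean log2 fold change at the two lowest temperatures, z-score obtained by mean subtraction and division by SD.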

UniProt Q9Y3D6, sequence (Q9Y3D6 whole entry): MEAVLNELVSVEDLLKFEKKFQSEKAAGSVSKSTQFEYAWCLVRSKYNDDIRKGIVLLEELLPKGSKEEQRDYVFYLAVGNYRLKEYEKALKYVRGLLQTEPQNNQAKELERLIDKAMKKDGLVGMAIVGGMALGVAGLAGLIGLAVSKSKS
UniProt P22830, sequence (P22830 whole entry): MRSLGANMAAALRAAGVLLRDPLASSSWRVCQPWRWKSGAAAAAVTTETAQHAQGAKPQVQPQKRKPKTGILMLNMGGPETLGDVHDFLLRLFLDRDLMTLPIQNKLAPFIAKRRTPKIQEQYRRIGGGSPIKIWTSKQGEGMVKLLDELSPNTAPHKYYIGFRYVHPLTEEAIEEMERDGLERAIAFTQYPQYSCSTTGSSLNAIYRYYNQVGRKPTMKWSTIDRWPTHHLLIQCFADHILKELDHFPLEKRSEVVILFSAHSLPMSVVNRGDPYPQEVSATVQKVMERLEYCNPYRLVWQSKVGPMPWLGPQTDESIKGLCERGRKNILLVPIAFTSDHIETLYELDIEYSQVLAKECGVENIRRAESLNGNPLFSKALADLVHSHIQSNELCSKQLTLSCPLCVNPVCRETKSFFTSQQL
UniProt P39748, sequence (P39748 whole entry): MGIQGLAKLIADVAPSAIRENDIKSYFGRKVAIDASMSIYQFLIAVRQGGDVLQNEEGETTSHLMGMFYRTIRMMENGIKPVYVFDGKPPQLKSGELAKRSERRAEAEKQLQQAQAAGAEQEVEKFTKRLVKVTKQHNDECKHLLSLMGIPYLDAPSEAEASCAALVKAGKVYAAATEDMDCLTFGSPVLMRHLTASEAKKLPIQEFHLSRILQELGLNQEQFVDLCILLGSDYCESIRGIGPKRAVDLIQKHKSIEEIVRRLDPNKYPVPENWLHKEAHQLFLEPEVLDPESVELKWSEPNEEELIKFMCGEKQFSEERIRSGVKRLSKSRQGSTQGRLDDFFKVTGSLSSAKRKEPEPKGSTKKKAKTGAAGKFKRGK
UniProt Q9BQL6, sequence (Q9BQL6 whole entry): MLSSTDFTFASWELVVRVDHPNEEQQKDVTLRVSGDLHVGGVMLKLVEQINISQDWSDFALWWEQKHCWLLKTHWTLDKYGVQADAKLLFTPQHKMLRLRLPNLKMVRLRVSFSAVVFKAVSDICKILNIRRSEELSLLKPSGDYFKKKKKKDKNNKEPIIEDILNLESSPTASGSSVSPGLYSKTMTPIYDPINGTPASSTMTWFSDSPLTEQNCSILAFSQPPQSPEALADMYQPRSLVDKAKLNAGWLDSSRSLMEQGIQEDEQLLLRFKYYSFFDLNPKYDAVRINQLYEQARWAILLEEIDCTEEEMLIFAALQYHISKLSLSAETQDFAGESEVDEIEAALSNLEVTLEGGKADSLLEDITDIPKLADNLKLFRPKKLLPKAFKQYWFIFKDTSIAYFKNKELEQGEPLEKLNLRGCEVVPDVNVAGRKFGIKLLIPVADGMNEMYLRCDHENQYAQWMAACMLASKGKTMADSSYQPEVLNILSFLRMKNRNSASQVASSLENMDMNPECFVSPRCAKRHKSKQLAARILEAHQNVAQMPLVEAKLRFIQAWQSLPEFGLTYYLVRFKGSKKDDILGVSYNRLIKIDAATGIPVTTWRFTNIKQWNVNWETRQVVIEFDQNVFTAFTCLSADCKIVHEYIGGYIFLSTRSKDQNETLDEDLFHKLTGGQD
UniProt Q9UK97, sequence (Q9UK97 whole entry): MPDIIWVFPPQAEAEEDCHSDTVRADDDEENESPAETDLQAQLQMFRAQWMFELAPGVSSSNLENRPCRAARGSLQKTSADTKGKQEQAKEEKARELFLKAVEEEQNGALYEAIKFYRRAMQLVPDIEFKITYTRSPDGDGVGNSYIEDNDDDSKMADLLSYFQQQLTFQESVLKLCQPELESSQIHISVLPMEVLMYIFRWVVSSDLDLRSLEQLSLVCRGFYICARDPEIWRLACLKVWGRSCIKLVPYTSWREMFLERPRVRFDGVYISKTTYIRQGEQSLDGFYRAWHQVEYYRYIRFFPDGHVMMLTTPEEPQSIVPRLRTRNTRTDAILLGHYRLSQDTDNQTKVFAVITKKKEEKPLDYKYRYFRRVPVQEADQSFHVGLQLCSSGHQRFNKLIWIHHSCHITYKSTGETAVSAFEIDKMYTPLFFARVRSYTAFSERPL
UniProt P09038, sequence (P09038 whole entry): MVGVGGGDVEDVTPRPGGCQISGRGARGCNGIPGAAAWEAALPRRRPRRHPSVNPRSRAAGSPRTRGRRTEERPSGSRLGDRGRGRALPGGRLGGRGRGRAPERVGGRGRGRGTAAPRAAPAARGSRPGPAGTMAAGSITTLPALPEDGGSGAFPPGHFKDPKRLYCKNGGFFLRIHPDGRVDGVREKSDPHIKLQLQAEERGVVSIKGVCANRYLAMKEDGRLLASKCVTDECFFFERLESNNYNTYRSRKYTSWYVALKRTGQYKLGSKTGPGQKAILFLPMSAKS
UniProt Q9Y680, sequence (Q9Y680 whole entry): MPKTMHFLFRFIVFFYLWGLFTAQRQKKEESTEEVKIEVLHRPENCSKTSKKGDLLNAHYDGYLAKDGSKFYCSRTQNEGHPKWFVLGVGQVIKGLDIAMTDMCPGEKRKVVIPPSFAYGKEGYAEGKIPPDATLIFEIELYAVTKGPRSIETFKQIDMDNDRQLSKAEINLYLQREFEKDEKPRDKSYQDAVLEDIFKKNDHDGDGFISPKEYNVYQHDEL
UniProt Q9NVF7, sequence (Q9NVF7 whole entry): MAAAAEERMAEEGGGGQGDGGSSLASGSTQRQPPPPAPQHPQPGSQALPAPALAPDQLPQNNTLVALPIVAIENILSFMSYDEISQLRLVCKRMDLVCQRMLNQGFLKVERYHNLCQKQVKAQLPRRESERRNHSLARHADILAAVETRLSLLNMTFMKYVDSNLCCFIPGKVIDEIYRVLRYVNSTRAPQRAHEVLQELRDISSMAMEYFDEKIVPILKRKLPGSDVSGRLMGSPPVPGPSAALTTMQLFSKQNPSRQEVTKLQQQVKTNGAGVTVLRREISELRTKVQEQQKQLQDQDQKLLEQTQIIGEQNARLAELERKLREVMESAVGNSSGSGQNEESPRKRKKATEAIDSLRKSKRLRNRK
UniProt Q9NVK5, sequence (Q9NVK5 whole entry): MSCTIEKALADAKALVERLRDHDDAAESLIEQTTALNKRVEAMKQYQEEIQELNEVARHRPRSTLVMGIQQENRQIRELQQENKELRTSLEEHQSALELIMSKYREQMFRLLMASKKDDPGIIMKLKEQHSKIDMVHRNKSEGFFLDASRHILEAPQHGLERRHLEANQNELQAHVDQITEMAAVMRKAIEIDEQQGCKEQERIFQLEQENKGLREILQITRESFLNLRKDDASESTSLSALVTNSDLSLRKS
UniProt Q9Y613, sequence (Q9Y613 whole entry): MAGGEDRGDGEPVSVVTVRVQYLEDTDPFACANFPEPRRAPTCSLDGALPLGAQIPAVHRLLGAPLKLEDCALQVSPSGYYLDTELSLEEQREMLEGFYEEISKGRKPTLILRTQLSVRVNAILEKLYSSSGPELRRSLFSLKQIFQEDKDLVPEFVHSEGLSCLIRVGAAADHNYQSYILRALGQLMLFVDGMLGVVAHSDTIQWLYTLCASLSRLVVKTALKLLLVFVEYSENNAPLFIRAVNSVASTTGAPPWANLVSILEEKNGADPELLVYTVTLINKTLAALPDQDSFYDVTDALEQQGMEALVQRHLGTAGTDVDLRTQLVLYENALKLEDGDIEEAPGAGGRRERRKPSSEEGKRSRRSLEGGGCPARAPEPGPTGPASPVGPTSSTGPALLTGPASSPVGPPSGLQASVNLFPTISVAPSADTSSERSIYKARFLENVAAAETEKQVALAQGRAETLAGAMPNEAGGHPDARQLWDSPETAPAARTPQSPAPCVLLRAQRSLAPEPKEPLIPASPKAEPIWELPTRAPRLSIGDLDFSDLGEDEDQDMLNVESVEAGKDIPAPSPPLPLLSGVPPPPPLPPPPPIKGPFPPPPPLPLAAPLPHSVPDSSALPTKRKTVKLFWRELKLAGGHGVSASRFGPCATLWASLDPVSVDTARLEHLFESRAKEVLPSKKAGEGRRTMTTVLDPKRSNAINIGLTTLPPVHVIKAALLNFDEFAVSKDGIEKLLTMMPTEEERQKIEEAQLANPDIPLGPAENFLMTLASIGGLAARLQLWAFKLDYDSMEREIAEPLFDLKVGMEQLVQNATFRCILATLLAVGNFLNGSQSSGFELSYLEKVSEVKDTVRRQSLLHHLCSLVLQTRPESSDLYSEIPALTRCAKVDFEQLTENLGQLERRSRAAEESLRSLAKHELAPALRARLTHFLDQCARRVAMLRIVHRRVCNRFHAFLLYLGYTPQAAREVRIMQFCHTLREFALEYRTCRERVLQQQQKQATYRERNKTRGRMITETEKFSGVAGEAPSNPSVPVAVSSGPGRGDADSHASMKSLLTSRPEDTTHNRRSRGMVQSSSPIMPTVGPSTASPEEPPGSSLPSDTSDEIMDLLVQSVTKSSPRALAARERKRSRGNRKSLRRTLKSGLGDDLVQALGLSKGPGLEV
UniProt O95684, sequence (O95684 whole entry): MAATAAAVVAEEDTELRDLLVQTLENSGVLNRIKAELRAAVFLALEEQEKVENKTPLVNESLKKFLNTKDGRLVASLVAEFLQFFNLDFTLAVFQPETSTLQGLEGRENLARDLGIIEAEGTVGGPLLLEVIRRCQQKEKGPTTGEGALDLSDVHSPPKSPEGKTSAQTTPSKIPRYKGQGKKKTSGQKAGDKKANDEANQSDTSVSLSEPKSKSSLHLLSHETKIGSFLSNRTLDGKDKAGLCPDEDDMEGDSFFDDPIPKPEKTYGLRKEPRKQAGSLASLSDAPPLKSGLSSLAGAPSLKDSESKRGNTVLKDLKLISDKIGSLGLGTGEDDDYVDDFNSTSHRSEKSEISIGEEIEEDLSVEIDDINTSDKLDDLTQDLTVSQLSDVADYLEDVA
UniProt P26885, sequence (P26885 whole entry): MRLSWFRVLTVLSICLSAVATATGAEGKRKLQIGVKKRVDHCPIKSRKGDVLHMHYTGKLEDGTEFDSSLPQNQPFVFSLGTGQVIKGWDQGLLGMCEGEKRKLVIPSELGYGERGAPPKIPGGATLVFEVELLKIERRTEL

In the case of FBXO3 (UniProt Q9UK99), the thermal stability z-score in assay [1] (setting [3]) was -0.185; in assay [1] (arsenate co-treatment: none), -0.251; in assay [2], -1.06.

As for FBXO4 (UniProt Q9UKT5), the thermal stability z-score in assay [1] (setting [3]) was -0.0696; in assay [1] (arsenate co-treatment: none) it was 0.534; in assay [2] it was -0.473.

In the case of FBXO7 (UniProt Q9Y3I1), the thermal stability z-score in assay [1] (setting [3]) is -0.692; in assay [1] (arsenate co-treatment: none) it was -0.573; in assay [2], -0.35.

In the case of FBXO9 (UniProt Q9UK97), the thermal stability z-score is -0.495 in assay [1] (setting [3]), -1.62 in assay [1] (arsenate co-treatment: none) and -0.61 in assay [2].

As for FBXO21 (UniProt O94952), the thermal stability z-score is -0.226 in assay [1] (setting [3]), -1.07 in assay [1] (arsenate co-treatment: none) and 0.0266 in assay [2].

In the case of FBXO22 (UniProt Q8NEZ5), the thermal stability z-score in assay [1] (setting [3]) is 0.0761; in assay [1] (arsenate co-treatment: none) it was -0.0297; in assay [2], -0.412.

Consider FBXO28 (UniProt Q9NVF7), for which the thermal stability z-score is 0.0993 in assay [1] (setting [3]), -0.125 in assay [1] (arsenate co-treatment: none) and -0.115 in assay [2].

Take FBXO30 (UniProt Q8TB52): the thermal stability z-score in assay [1] (setting [3]) is -0.102; in assay [1] (arsenate co-treatment: none), -0.208; in assay [2] it was -0.959.

With FBXO38 (UniProt Q6PIJ6), the thermal stability z-score in assay [1] (setting [3]) is 0.0679; in assay [1] (arsenate co-treatment: none) it was -0.115; in assay [2] it was -0.981.

Take FBXO45 (UniProt P0C2W1): the thermal stability z-score worked out at 0.369 in assay [1] (setting [3]), 0.292 in assay [1] (arsenate co-treatment: none) and 0.229 in assay [2].

In the case of FBXW11 (UniProt Q9UKB1), the thermal stability z-score was 0.162 in assay [1] (setting [3]), -0.0669 in assay [1] (arsenate co-treatment: none) and 0.814 in assay [2].

Take FCHO2 (UniProt Q0JRZ9): the thermal stability z-score in assay [1] (setting [3]) is -0.472; in assay [1] (arsenate co-treatment: none) it was -0.218; in assay [2], 0.405.

As to FCHSD2 (UniProt O94868), the thermal stability z-score is -0.0527 in assay [1] (setting [3]), -0.175 in assay [1] (arsenate co-treatment: none) and -0.184 in assay [2].

With FDFT1 (UniProt P37268), the values for the thermal stability z-score in assay [1] (setting [3]), in assay [1] (arsenate co-treatment: none) and in assay [2] were -0.0123, 0.444 and 0.108, respectively.

Consider FDPS (UniProt P14324), for which the thermal stability z-score in assay [1] (setting [3]) was -0.000727; in assay [1] (arsenate co-treatment: none), -0.16; in assay [2], -0.437.

Turning to FDX1 (UniProt P10109), the thermal stability z-score was -0.234 in assay [1] (setting [3]), -0.162 in assay [1] (arsenate co-treatment: none) and -0.0279 in assay [2].

In the case of FDXR (UniProt P22570), the thermal stability z-score is -0.331 in assay [1] (setting [3]), -0.428 in assay [1] (arsenate co-treatment: none) and 0.404 in assay [2].

With FECH (UniProt P22830), the thermal stability z-score in assay [1] (setting [3]) was 0.24; in assay [1] (arsenate co-treatment: none), 0.0849; in assay [2], -0.203.

Take FEM1B (UniProt Q9UK73): the results for the thermal stability z-score in assay [1] (setting [3]), in assay [1] (arsenate co-treatment: none) and in assay [2] were 0.128, 0.146 and -1.27, respectively.

FEN1 (UniProt P39748): the thermal stability z-score is -0.489 in assay [1] (setting [3]), 0.469 in assay [1] (arsenate co-treatment: none) and 0.572 in assay [2].

In the case of FER (UniProt P16591), the thermal stability z-score in assay [1] (setting [3]) is 0.209; in assay [1] (arsenate co-treatment: none), 0.182; in assay [2], 0.326.

On to FERMT1 (UniProt Q9BQL6), for which the thermal stability z-score in assay [1] (setting [3]) turned out to be 0.0116; in assay [1] (arsenate co-treatment: none), 0.904; in assay [2], 1.07.

FERMT2 (UniProt Q96AC1): the thermal stability z-score is 0.0975 in assay [1] (setting [3]), -0.153 in assay [1] (arsenate co-treatment: none) and 0.203 in assay [2].

In the case of FGD4 (UniProt Q96M96), the figures for the thermal stability z-score in assay [1] (setting [3]), in assay [1] (arsenate co-treatment: none) and in assay [2] were 0.0849, -0.0145 and -0.203, respectively.

For FGF2 (UniProt P09038), the results for the thermal stability z-score in assay [1] (setting [3]), in assay [1] (arsenate co-treatment: none) and in assay [2] were -0.298, 0.269 and -1.74, respectively.

Consider FGFR1OP2 (UniProt Q9NVK5), for which the thermal stability z-score in assay [1] (setting [3]) is -0.0532; in assay [1] (arsenate co-treatment: none), 0.0859; in assay [2] it was 0.0446.

Turning to FGFR1OP (UniProt O95684), the thermal stability z-score in assay [1] (setting [3]) was 0.163; in assay [1] (arsenate co-treatment: none), -0.0584; in assay [2], 1.33.

As for FH (UniProt P07954), the thermal stability z-score in assay [1] (setting [3]) was 0.0704; in assay [1] (arsenate co-treatment: none), 0.0826; in assay [2] it was -1.66.

As for FHL1 (UniProt Q13642), the thermal stability z-score was 0.358 in assay [1] (setting [3]), 0.294 in assay [1] (arsenate co-treatment: none) and -0.17 in assay [2].

For FHL2 (UniProt Q14192), the figures for the thermal stability z-score in assay [1] (setting [3]), in assay [1] (arsenate co-treatment: none) and in assay [2] were -1.64, -0.905 and -6.31, respectively.

Take FHL3 (UniProt Q13643): the thermal stability z-score in assay [1] (setting [3]) was 0.648; in assay [1] (arsenate co-treatment: none), -0.254; in assay [2] it was -3.01.

Turning to FHOD1 (UniProt Q9Y613), the figures for the thermal stability z-score in assay [1] (setting [3]), in assay [1] (arsenate co-treatment: none) and in assay [2] were -0.261, -0.0798 and 0.2, respectively.

In the case of FIBP (UniProt O43427), the results for the thermal stability z-score in assay [1] (setting [3]), in assay [1] (arsenate co-treatment: none) and in assay [2] were 0.453, 0.0779 and 0.125, respectively.

For FIGNL1 (UniProt Q6PIW4), the thermal stability z-score is -0.113 in assay [1] (setting [3]), -0.0699 in assay [1] (arsenate co-treatment: none) and -1 in assay [2].

FIP1L1 (UniProt Q6UN15): the thermal stability z-score in assay [1] (setting [3]) is 0.903; in assay [1] (arsenate co-treatment: none), 0.265; in assay [2], -1.73.

As for FIS1 (UniProt Q9Y3D6), the thermal stability z-score is -0.114 in assay [1] (setting [3]), 0.595 in assay [1] (arsenate co-treatment: none) and -0.678 in assay [2].

On to FKBP1A (UniProt P62942), for which the thermal stability z-score was 0.374 in assay [1] (setting [3]), 0.262 in assay [1] (arsenate co-treatment: none) and -1.96 in assay [2].

Regarding FKBP2 (UniProt P26885), the thermal stability z-score in assay [1] (setting [3]) is -3.2; in assay [1] (arsenate co-treatment: none) it was -3.35; in assay [2], 0.177.

Take FKBP3 (UniProt Q00688): the thermal stability z-score in assay [1] (setting [3]) was 0.676; in assay [1] (arsenate co-treatment: none) it was 0.552; in assay [2], -0.406.

For FKBP4 (UniProt Q02790), the figures for the thermal stability z-score in assay [1] (setting [3]), in assay [1] (arsenate co-treatment: none) and in assay [2] were 0.198, 0.244 and 0.191, respectively.

With FKBP5 (UniProt Q13451), the thermal stability z-score in assay [1] (setting [3]) is -0.637; in assay [1] (arsenate co-treatment: none), -0.429; in assay [2], -0.667.

Consider FKBP7 (UniProt Q9Y680), for which the values for the thermal stability z-score in assay [1] (setting [3]), in assay [1] (arsenate co-treatment: none) and in assay [2] were -4.17, -4.05 and -0.253, respectively.
